Data from PubChem BioAssay AID248 (DTP/NCI, 2004).
Values joined by “and” are separate entries in the source; they are usually repeats but may differ in a detail not shown here. Equal entries are not always repeated. Inconclusive results and toxic doses are left out. Cut-off read from the data, not from the text of the source: active = T/C of 150% or more; inactive = T/C below 125%.

System: L1210 leukemia ip in BDF1 mice, survival T/C
Assay: NCI In Vivo Anticancer Drug Screen. Data for tumor model L1210 Leukemia (intraperitoneal) in B6D2F1 (BDF1) mice
Conditions: endpoint: mean survival time, higher = longer survival
Outline: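 In this screen, tumor-bearing mice given compound are compared to those given vehicle, and their survival values are reported as a treated-to-control quotient.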

[1] = dose: 100.0 mg/kg/injection, schedule: Q01DX009 (ip), vehicle: saline with Tween-80
[2] = dose: 100.0 mg/kg/injection, schedule: Q04DX003 (ip), vehicle: saline with Tween-80
[3] = dose: 200.0 mg/kg/injection, schedule: Q01DX009 (ip), vehicle: saline with Tween-80
[4] = dose: 200.0 mg/kg/injection, schedule: Q04DX003 (ip), vehicle: saline with Tween-80
[5] = dose: 400.0 mg/kg/injection, schedule: Q04DX003 (ip), vehicle: saline with Tween-80
[6] = dose: 50.0 mg/kg/injection, schedule: Q01DX009 (ip), vehicle: saline with Tween-80
[7] = dose: 100.0 mg/kg/injection, schedule: Q01DX009 (ip), vehicle: Klucel (hydroxypropylcellulose) (HPC)
[8] = dose: 100.0 mg/kg/injection, schedule: Q04DX003 (ip), vehicle: Klucel (hydroxypropylcellulose) (HPC)
[9] = dose: 200.0 mg/kg/injection, schedule: Q04DX003 (ip), vehicle: Klucel (hydroxypropylcellulose) (HPC)
[10] = dose: 100.0 mg/kg/injection, schedule: Q04DX002 (ip), vehicle: saline with Tween-80
[11] = dose: 200.0 mg/kg/injection, schedule: Q04DX002 (ip), vehicle: saline with Tween-80
[12] = dose: 400.0 mg/kg/injection, schedule: Q04DX002 (ip), vehicle: saline with Tween-80
[13] = dose: 400.0 mg/kg/injection, schedule: Q04DX003 (ip), vehicle: Klucel (hydroxypropylcellulose) (HPC)
[14] = dose: 100.0 mg/kg/injection, schedule: Q01DX001 (ip), vehicle: saline
[15] = dose: 200.0 mg/kg/injection, schedule: Q01DX001 (ip), vehicle: saline
[16] = dose: 200.0 mg/kg/injection, schedule: Q01DX009 (ip), vehicle: Klucel (hydroxypropylcellulose) (HPC)
[17] = dose: 400.0 mg/kg/injection, schedule: Q01DX009 (ip), vehicle: Klucel (hydroxypropylcellulose) (HPC)
[18] = dose: 100.0 mg/kg/injection, schedule: Q01DX001 (ip), vehicle: carboxymethylcellulose (CMC)
[19] = dose: 200.0 mg/kg/injection, schedule: Q01DX001 (ip), vehicle: carboxymethylcellulose (CMC)
[20] = dose: 400.0 mg/kg/injection, schedule: Q01DX001 (ip), vehicle: carboxymethylcellulose (CMC)

Measured: T/C

O=C(COc1ccc(Cl)cc1Cl)NC(O)C(Cl)(Cl)Cl (centres undefined)
inactive: [1] 94 % of control | [2] 100 % of control | [3] 87 % of control | [4] 97 % of control | dose: 400.0 mg/kg/injection, schedule: Q01DX009 (ip), vehicle: saline with Tween-80 89 % of control | [5] 94 % of control

CCC(/C=C1\Oc2ccc(-c3ccccc3)cc2N1CC)=C\c1oc2ccc(-c3ccccc3)cc2[n+]1CC
inactive: dose: 0.1 mg/kg/injection, schedule: Q01DX009 (ip), vehicle: other 102 % of control | dose: 0.3 mg/kg/injection, schedule: Q01DX009 (ip), vehicle: other 110 % of control | dose: 0.6 mg/kg/injection, schedule: Q01DX009 (ip), vehicle: other 116 % of control | dose: 0.62 mg/kg/injection, schedule: Q01DX009 (ip), vehicle: saline 111 % of control | dose: 1.2 mg/kg/injection, schedule: Q01DX009 (ip), vehicle: other 116 % of control | dose: 1.25 mg/kg/injection, schedule: Q01DX009 (ip), vehicle: saline 108 % of control | dose: 2.5 mg/kg/injection, schedule: Q01DX009 (ip), vehicle: saline 114 % of control | dose: 2.6 mg/kg/injection, schedule: Q01DX009 (ip), vehicle: other 122 % of control | dose: 5.0 mg/kg/injection, schedule: Q01DX009 (ip), vehicle: saline 103 % of control | dose: 19.0 mg/kg/injection, schedule: Q01DX001 (ip), vehicle: other 109 % of control

CCOC(=O)COC
inactive: dose: 50.0 mg/kg/injection, schedule: Q01DX009 (ip), vehicle: saline 100 % of control | dose: 100.0 mg/kg/injection, schedule: Q01DX009 (ip), vehicle: saline 96 % of control | dose: 200.0 mg/kg/injection, schedule: Q01DX009 (ip), vehicle: saline 89 % of control

CSC1CCCCC1O (centres undefined)
inactive: [6] 89 % of control | [1] 92 % of control | [3] 92 % of control

CCCCCCCCCCCCCCCCCC(=O)NCCNC(=O)CCCCCCCCCCCCCCCCC
inactive: dose: 12.5 mg/kg/injection, schedule: Q04DX003 (ip), vehicle: Klucel (hydroxypropylcellulose) (HPC) 103 % of control | dose: 25.0 mg/kg/injection, schedule: Q01DX009 (ip), vehicle: Klucel (hydroxypropylcellulose) (HPC) 108 % of control | dose: 25.0 mg/kg/injection, schedule: Q04DX003 (ip), vehicle: Klucel (hydroxypropylcellulose) (HPC) 107 % of control | dose: 50.0 mg/kg/injection, schedule: Q01DX009 (ip), vehicle: Klucel (hydroxypropylcellulose) (HPC) 104 % of control | dose: 50.0 mg/kg/injection, schedule: Q04DX003 (ip), vehicle: Klucel (hydroxypropylcellulose) (HPC) 104 % of control | [7] 104 % of control | [8] 90 % of control | dose: 150.0 mg/kg/injection, schedule: Q01DX009 (ip), vehicle: Klucel (hydroxypropylcellulose) (HPC) 88 % of control | [9] 96 % of control

OCCOc1ccc(OCCO)cc1
inactive: [2] 94 % of control | [4] 97 % of control | [5] 99 % of control

CN(C)C1CCC(C=C(C2CCC(CC(=O)O)CC2)C2CCC(CC(=O)O)CC2)CC1 (centres undefined)
inactive: [10] 111 % of control | [11] 101 % of control | [12] 105 % of control

CC(NC1=NCCO1)c1cccc2ccccc12 (centres undefined)
inactive: dose: 25.0 mg/kg/injection, schedule: Q01DX009 (ip), vehicle: saline with Tween-80 94 % of control | [6] 94 % of control | [2] 96 % of control | [4] 94 % of control | [5] 89 % of control

Cn1c(=O)n(OS(=O)(=O)c2ccccc2)c(=O)c2ccccc21
inactive: dose: 100.0 mg/kg/injection, schedule: Q01DX009 (ip), vehicle: other 107 % of control | dose: 200.0 mg/kg/injection, schedule: Q01DX009 (ip), vehicle: other 96 % of control | dose: 400.0 mg/kg/injection, schedule: Q01DX009 (ip), vehicle: other 98 % of control

O=C(O)CSCc1ccc(Cl)cc1
inactive: dose: 100.0 mg/kg/injection, schedule: Q01DX001 (ip), vehicle: acetone 95 % of control | [8] 94 % of control | dose: 200.0 mg/kg/injection, schedule: Q01DX001 (ip), vehicle: acetone 97 % of control | [9] 98 % of control | dose: 400.0 mg/kg/injection, schedule: Q01DX001 (ip), vehicle: acetone 97 % of control | [13] 98 % of control

O=c1[nH]nnc2nc(CCCc3ccccc3)[nH]c12
inactive: dose: 100.0 mg/kg/injection, schedule: Q01DX001 (ip), vehicle: saline with Tween-80 98 % of control | dose: 200.0 mg/kg/injection, schedule: Q01DX001 (ip), vehicle: saline with Tween-80 111 % of control | dose: 400.0 mg/kg/injection, schedule: Q01DX001 (ip), vehicle: saline with Tween-80 104 % of control

Clc1ccc(SCN(CSc2ccc(Cl)cc2)Cc2ccccc2)cc1
inactive: [14] 91 % of control | [15] 90 % of control

CCCCCOC(=O)CN(CC(=O)OCCCCC)c1ccccc1
inactive: [7] 88 % of control | [2] 101 % of control | [16] 99 % of control | [4] 98 % of control | [17] 91 % of control | [5] 95 % of control

COc1ccc(OC(=O)Nc2ccccc2Cl)cc1
inactive: [7] 94 % of control | [8] 95 % of control | [16] 103 % of control | [9] 104 % of control | [17] 103 % of control | [13] 101 % of control

O=C(Nc1ccc2c3c(ccc(NC(=O)c4ccccc4)c13)C=C2)c1ccccc1
inactive: dose: 50.0 mg/kg/injection, schedule: Q01DX001 (ip), vehicle: saline 102 % of control | [14] 100 % of control | [15] 100 % of control | dose: 400.0 mg/kg/injection, schedule: Q01DX001 (ip), vehicle: saline 100 % of control

Cc1cccc(NC(=O)Nc2ccc(F)cc2)n1
inactive: dose: 100.0 mg/kg/injection, schedule: Q01DX001 (ip), vehicle: Klucel (hydroxypropylcellulose) (HPC) 94 % of control | [7] 98 % of control | dose: 100.0 mg/kg/injection, schedule: Q04DX002 (ip), vehicle: Klucel (hydroxypropylcellulose) (HPC) 98 % of control and 103 % of control | [8] 97 % of control | dose: 200.0 mg/kg/injection, schedule: Q01DX001 (ip), vehicle: Klucel (hydroxypropylcellulose) (HPC) 96 % of control | [16] 95 % of control | dose: 200.0 mg/kg/injection, schedule: Q04DX002 (ip), vehicle: Klucel (hydroxypropylcellulose) (HPC) 100 % of control and 102 % of control | [9] 100 % of control | dose: 400.0 mg/kg/injection, schedule: Q01DX001 (ip), vehicle: Klucel (hydroxypropylcellulose) (HPC) 86 % of control | [17] 95 % of control | dose: 400.0 mg/kg/injection, schedule: Q04DX002 (ip), vehicle: Klucel (hydroxypropylcellulose) (HPC) 105 % of control and 107 % of control | [13] 107 % of control

CNc1nc(N)c(N=O)c(Nc2ccc(Br)cc2)n1
inactive: [18] 102 % of control | [19] 104 % of control | [20] 102 % of control

CC(C)(C)C1=CC(C)([N+](=O)[O-])C=C(C(C)(C)C)C1=O
inactive: [18] 88 % of control | [19] 89 % of control | [20] 88 % of control

ClC1=C(Cl)C2(Cl)CCC1(Cl)C2(Cl)Cl
inactive: dose: 100.0 mg/kg/injection, schedule: Q04DX003 (ip), vehicle: saline 101 % of control | dose: 200.0 mg/kg/injection, schedule: Q04DX003 (ip), vehicle: saline 97 % of control | dose: 400.0 mg/kg/injection, schedule: Q04DX003 (ip), vehicle: saline 108 % of control

CCCCCCCCCCCCCCCN(CCCl)CCCl
inactive: [18] 93 % of control | [19] 96 % of control

C=CCN1C(=O)C(CCCCCCCCCCCC)C(=O)NC1=S (centres undefined)
inactive: dose: 75.0 mg/kg/injection, schedule: Q01DX001 (ip), vehicle: other 101 % of control | dose: 150.0 mg/kg/injection, schedule: Q01DX001 (ip), vehicle: other 95 % of control | dose: 300.0 mg/kg/injection, schedule: Q01DX001 (ip), vehicle: other 90 % of control

O=S(CCO)c1ccc(Cl)cc1 (centres undefined)
inactive: [10] 100 % of control and 109 % of control | [2] 118 % of control | [11] 102 % of control and 88 % of control | [4] 106 % of control | [12] 98 % of control and 103 % of control | [5] 100 % of control
